# Laboratory results taken from patent US20100022637A1, “IDENTIFICATION OF ANTI-CANCER COMPOUNDS AND COMPOUNDS FOR TREATING HUNTINGTON'S DISEASE AND METHODS OF TREATMENT THEREOF” (THE TRUSTEES OF COLUMBIA UNIVERSITY IN THE CITY OF NEW YORK, priority 2005, published 2010).
# Key:
# [1] = system: N548 mutant cells; test: cells; settings: for Activity: scale not defined; for maximal fold induction: read-out: N548 Mut: Max, maximum rescue expressed as fold over DMSO treated N548 mutant cells; for selectivity profile of cell death rescue in panel of htt expressing cell lines: N63, N548, FL htt cell lines, in words
# Procedure: Embryonic rat striatal neurons were conditionally immortalized by stably transfecting a temperature-sensitive SV40 large T-antigen (T-ag) to generate the ST14A cell line. ST14A cells proliferate at the permissive temperature (33° C.), but stop dividing at 39° C., as a result of T-ag degradation. […] As htt protein context modulates polyQ toxicity, testing these different length htt proteins could provide insight into the basis for context dependence.
# ST14A Assay System: Calcein acetoxylmethyl ester (AM) (Molecular Probes, Eugene, Oreg.) is a non-fluorescent, membrane-permeable compound that is cleaved by intracellular esterases, which subsequently forms the anionic, fluorescent compound, calcein, that cannot permeate the cell membrane. […] A fluorescence viability assay, that is based on conversion of a non-fluorescent substrate (calcein AM) to a fluorescent product by nonspecific esterases in live cells, was employed to monitor cell death in wild type (wt) ST14A-Htt and mut ST14A-Htt cell lines. Cell death is indicated by a decrease in fluorescence. […] 3 μl of each compound was transferred from daughter plates to triplicate assay plates for a final assay concentration of 4 μg/ml in 0.1% DMSO (10 μM for NINDS compounds). Cells were incubated at 33° C. for 3 h to enhance attachment and then shifted to 39° C. (with 5% CO2). After 3 days (d), cells were washed 10 times with phosphate buffered saline (PBS) leaving 20 μl residual PBS per well, and 20 μl of 2 μg/ml calcein AM (Molecular probes) in PBS was added per well. […] The fluorescence intensity in each well was normalized to the median of each plate. The median normalized fluorescence of each triplicate assay wells was determined. A well with more than 50% increase in intensity above the median signal intensity was considered a “hit.”
# Assay Development: An assay was developed for detecting mutant htt-induced cell death in ST14A cells in a 384-well plate format. A calcein AM-based method was used to detect cell viability, and optimized the cell number and time course for this method. […] A cell number titration was performed to determine the cell density at which calcein fluorescence was not saturated and the coefficient of variation (CV) was low (FIG. 14A-B). A low CV is critical for a high-throughput assay as it decreases noise and enhances sensitivity. […] Next, the kinetics of the fluorescence signal were determined.
# Next, the serum concentrations that induce cell death in these cells were determined. Cells were seeded in decreasing serum (IFS) concentrations (5 to 0%), and cell viability was assayed after 3 d using the calcein AM assay (FIG. 14E).
# A Z′ value of greater than 0 is required for a usable assay, with a maximum value of 1.0 for an ideal assay. For the assay, calcein fluorescence was used on the day of seeding to represent 100% rescue. The difference in calcein fluorescence signal on the day of seeding and after different number of days under serum deprivation was determined and used to calculate the Z′ factor. […] About 47,000 compounds were assayed in a 384-well plate format in triplicate to enhance the reliability of the primary screen.
# [2] = Rescue and toxicity of Compound 164 and analogs (Table 4); settings: for TC50: Table 4, toxicity
# [3] = nonselective hits (rescue also parental ST14A), 0.5% IFS, 39° C., 3 d
# [4] = Rattus norvegicus, read-out: EC50 based on activity in N548 mutant cells
# [5] = read-out: EC50 based on activity in N548 mutant cells
compound,measurement,setting,value
"CCCC1O[C@@H]2C[C@H]3[C@@H]4CCC5=CC(=O)C=C[C@]5(C)[C@H]4[C@@H](O)C[C@]3(C)[C@]2(C(=O)CO)O1 (stereo partly drawn) [Budesonide, reference compound]",EC50,"[1]; Rattus norvegicus, ST14A, 72 h",500 nM
same,Activity,[1]; nonselective hits,2
"CCOC(=O)C(C)(C)Oc1ccc(Cl)cc1 [Clofibrate, reference compound]",EC50,"[1]; Rattus norvegicus, ST14A, 72 h",1000 nM
same,Activity,[1]; nonselective hits,2
"O=C(O)c1cc([N+](=O)[O-])ccc1NCCCc1ccccc1 [Compound 2-NPPB, reference compound]",EC50,[1]; [3],10000 nM
same,Activity,[1]; nonselective hits,1.5
same,CC50,"[1]; read-out: TC50, nonselective hits, maximum concentration tested 80 μM",40000 nM
CC[C@@]1(C)CC(CCN(Cc2ccco2)C(C)=O)(c2ccccc2)CCO1 (stereo partly drawn) [Compound 164-1],EC50,[2],2000 nM
same,TC50,[2],8000 nM
Cc1ccc(C2(CCNC(=O)c3ccc(Br)o3)CCOC(C(C)C)C2)cc1 (stereo not drawn) [Compound 164-2],EC50,[2],440 nM
same,Max % Toxicity,"[2]; Table 4, cell model not stated",53.69%
CCC(=O)N(CCC(Cc1ccccc1)C1CCOC(C)(C)C1)Cc1ccco1 (stereo not drawn) [Compound 164-3],EC50,[2],200 nM
same,TC50,[2],8000 nM
same,Max % Toxicity,"[2]; Table 4, cell model not stated",56.80%
CC(c1ccccc1)N(CCC(Cc1ccccc1)C1COCC(C)(C)C1)C(=O)c1ccco1 (stereo not drawn) [Compound 164-4],TC50,[2],400 nM
same,Max % Toxicity,"[2]; Table 4, cell model not stated",64.22%
"COc1ccc(CN(CCC(c2ccccc2)C2CCOC(C)(C)C2)C(=O)c2ccco2)cc1OC (stereo not drawn) [Compound 164-5, N-(3,4-dimethoxybenzyl)-N-[3-(2,2-dimethyltetrahydro-2H-pyran-4-yl)-3-phenylpropyl]-2-furamide]",EC50,[2],200 nM
same,TC50,[2],6000 nM
same,Max % Toxicity,"[2]; Table 4, cell model not stated",18.43%
COc1ccc(CN(CCC2(c3ccc(C)cc3)CCOC(C)(C)C2)C(=O)c2ccco2)cc1 (stereo not drawn) [Compound 164-6],EC50,[2],100 nM
same,TC50,[2],3000 nM
same,Max % Toxicity,"[2]; Table 4, cell model not stated",60.14%
COc1ccc(CN(CCC(c2ccc(OC(C)C)cc2)C(C)C)C(=O)c2ccco2)cc1 (stereo not drawn) [Compound 164-7],EC50,[2],100 nM
same,TC50,[2],400 nM
same,Max % Toxicity,"[2]; Table 4, cell model not stated",63.90%
COc1ccc(CN(CCC2(c3ccccc3)CCOC(C)(C)C2)C(C)=O)cc1OC (stereo not drawn) [Compound 164-9],Max % Rescue,"[2]; Table 4, cell model not stated",28.56%
same,Max % Toxicity,"[2]; Table 4, cell model not stated",19.60%
"COc1cc([C@@H]2c3cc4c(cc3[C@H](O)[C@H]3COC(=O)[C@H]23)OCO4)cc(OC)c1OC [Podophyllotoxin, reference compound]",maximal fold induction,"[1]; Rattus norvegicus, 72 h",2.5
same,EC50,[1]; [4],25 nM
"CCCCC[C@H](O)/C=C/[C@H]1[C@H](O)CC(=O)[C@@H]1C/C=C\CCCC(=O)O [Prostaglandin E2, reference compound]",EC50,[1]; [3],100 nM
same,Activity,[1]; nonselective hits,2
"C[C@H](O)[C@H](O)[C@H]1CNc2nc(N)[nH]c(=O)c2N1 [Tetrahydrobiopterin, reference compound]",EC50,"[1]; Rattus norvegicus, ST14A, 72 h",500 nM
same,Activity,[1]; nonselective hits,2.5
"CC1=C(/C=C/C(C)=C/C=C/C(C)=C/C(=O)O)C(C)(C)CCC1 [Tretinoin, reference compound]",EC50,"[1]; Rattus norvegicus, ST14A, 72 h",600 nM
same,Activity,[1]; nonselective hits,2.5
"CC1OC(=O)C(C(C)C)NC(=O)C(C(C)C)OC(=O)C(C(C)C)NC(=O)C(C)OC(=O)C(C(C)C)NC(=O)C(C(C)C)OC(=O)C(C(C)C)NC(=O)C(C)OC(O)C(C(C)C)NC(=O)C(C(C)C)OC(=O)C(C(C)C)NC1=O (stereo not drawn) [Valinomycin A, reference compound]",maximal fold induction,"[1]; Rattus norvegicus, 72 h",2.5
same,EC50,[1]; [4],150 nM
"CC[C@]1(O)C[C@H]2CN(CCc3c([nH]c4ccccc34)[C@@](C(=O)OC)(c3cc4c(cc3OC)N(C=O)[C@H]3[C@@](O)(C(=O)OC)[C@H](OC(C)=O)[C@]5(CC)C=CCN6CC[C@]43[C@@H]65)C2)C1 [Vincristine, reference compound]","N548 Mut: Max, maximum rescue expressed as fold over DMSO treated N548 mutant cells","[1]; 0.5% IFS, 39° C., 3 d",2.5 fold
same,EC50,[1]; [5],40 nM
"CCCOc1ccccc1-c1nc2nn[nH]c2c(=O)[nH]1 [Zaprinast, reference compound]",EC50,"[1]; Rattus norvegicus, ST14A, 72 h",5000 nM
same,Activity,[1]; nonselective hits,1.5
CCCc1cc(OC(=O)C(CC)c2ccccc2)n(-c2cccc(F)c2)n1 (stereo not drawn) [revertin-1b],selectivity profile of cell death rescue in panel of htt expressing cell lines,[1],selectively rescued cell death in all mutant htt-expressing cell lines
same,maximal fold induction,"[1]; Rattus norvegicus, 72 h",25
same,EC50,[1]; [4],4 µg/mL
COc1ccccc1C(CCN(C(C)=O)C(C)c1ccccc1)C1CCC(C)(C)OC1 (stereo not drawn) [revertin-3],maximal fold induction,"[1]; Rattus norvegicus, 72 h",4
same,EC50,[1]; [4],2 µg/mL
COc1cc(CC(=O)NC(C)C2C(=O)CC3C2C3(C)C)cc(OC)c1OC (stereo not drawn) [revertin-4],maximal fold induction,"[1]; Rattus norvegicus, 72 h",1.5
same,EC50,[1]; [4],4 µg/mL
CC1(C)C(C=C(Cl)Cl)C1C(=O)C1=C(O)CCCC1=O (stereo not drawn) [revertin-6],selectivity profile of cell death rescue in panel of htt expressing cell lines,[1],N548 mutant selective
same,maximal fold induction,"[1]; Rattus norvegicus, 72 h",8
same,EC50,[1]; [4],3 µg/mL
CCCCCCN(C(=O)CCCC)C(C)c1nc2ccccc2c(=O)n1-c1ccccc1OC (stereo not drawn) [revertin-10],selectivity profile of cell death rescue in panel of htt expressing cell lines,[1],N63 and N548 mutant selective
same,maximal fold induction,"[1]; Rattus norvegicus, 72 h",1.5
same,EC50,[1]; [4],4 µg/mL
O=c1cccc2n1CC1CC2CN(C2=NC=NC3c4cc(Cl)ccc4NC23)C1 (stereo not drawn) [revertin-12],maximal fold induction,"[1]; Rattus norvegicus, 72 h",1.5
same,EC50,[1]; [4],3 µg/mL
O=[N+]([O-])c1cc(CN2CCN(CCO)CC2)ccc1Cl [revertin-13],maximal fold induction,"[1]; Rattus norvegicus, 72 h",1.5
same,EC50,[1]; [4],5 µg/mL
CCOC(=O)c1cccc(NS(O)(O)c2ccc(OC)cc2)c1 [revertin-14],selectivity profile of cell death rescue in panel of htt expressing cell lines,[1],N548 and FL-mutant selective
O=c1[nH]c2c(c(=O)[nH]1)C(c1cccc([N+](=O)[O-])c1)C=C(c1ccccc1)O2 (stereo not drawn) [revertin-15],maximal fold induction,"[1]; Rattus norvegicus, 72 h",3
same,EC50,[1]; [4],1 µg/mL
CCCN1C(=O)C(=O)c2cc(C)ccc21 [revertin-16],maximal fold induction,"[1]; Rattus norvegicus, 72 h",2
same,EC50,[1]; [4],1 µg/mL
CC(C)CC(NC(=O)OCc1ccccc1)C(=O)Oc1ccc2c(=O)c(-c3ccc([N+](=O)O)cc3)coc2c1 (stereo not drawn) [revertin-17],maximal fold induction,"[1]; Rattus norvegicus, 72 h",1.5
same,EC50,[1]; [4],4 µg/mL
COc1ccc(C(CCN(CC2CCOC(C)(C)C2)C(C)=O)c2ccccc2)cc1 (stereo not drawn) [revertin-18],maximal fold induction,"[1]; Rattus norvegicus, 72 h",1.5
same,EC50,[1]; [4],4 µg/mL
COc1cc2c3c(c1)C(C)CC(C)(C)N3C(=O)C2=O (stereo not drawn) [revertin-19],maximal fold induction,"[1]; Rattus norvegicus, 72 h",2
same,EC50,[1]; [4],4 µg/mL
COc1ccc(CN(CCC2(c3ccccc3)CCOC(C)(C)C2)C(=O)c2ccco2)cc1OC (stereo not drawn) [revertin-20],maximal fold induction,"[1]; Rattus norvegicus, 72 h",2
same,EC50,[1]; [4],8 µg/mL
Cc1ccc(-c2nc(NS(=O)(=O)c3ccc(Cl)cc3)sc2C)cc1 [revertin-21],maximal fold induction,"[1]; Rattus norvegicus, 72 h",3
same,EC50,[1]; [4],4 µg/mL
CC(=O)N(c1ccc(Br)cc1)C1C(=O)c2ccccc2C(=O)C1N(C)C (stereo not drawn) [revertin-24],maximal fold induction,"[1]; Rattus norvegicus, 72 h",25
same,EC50,[1]; [4],2 µg/mL
CCC1CN2CCc3cc(OC)c(OC)cc3C2CC1CC1c2cc(OC)c(OC)cc2CCN1C(=O)c1ccco1 (stereo not drawn) [revertin-25],maximal fold induction,"[1]; Rattus norvegicus, 72 h",4
same,EC50,[1]; [4],3 µg/mL
CC12CC3CC(C)(C1)CC(NC=O)(C3)C2 [revertin-26],maximal fold induction,"[1]; Rattus norvegicus, 72 h",1.5
same,EC50,[1]; [4],5 µg/mL
Oc1ccc2c(c1)CC1NCCc3cc(O)c(O)c-2c31 (stereo not drawn) [revertin-27],maximal fold induction,"[1]; Rattus norvegicus, 72 h",3
same,EC50,[1]; [4],4 µg/mL
CC1=NN(C(N)=S)C(=O)C1NNc1ccccc1C(F)(F)F (stereo not drawn) [revertin-29],maximal fold induction,"[1]; Rattus norvegicus, 72 h",3
same,EC50,[1]; [4],2 µg/mL
CC(C)C1=CCC2C(=C1)CCC1C(C(=O)O)CCCC21C (stereo not drawn) [revertin-30],maximal fold induction,"[1]; Rattus norvegicus, 72 h",4
same,EC50,[1]; [4],2 µg/mL
O=C(NNC(C(=O)Cc1cccs1)C(F)(F)F)c1cccc(Br)c1 (stereo not drawn) [revertin-31],maximal fold induction,"[1]; Rattus norvegicus, 72 h",4
same,EC50,[1]; [4],2 µg/mL
Antimycin A [reference compound],"N548 Mut: Max, maximum rescue expressed as fold over DMSO treated N548 mutant cells","[1]; 0.5% IFS, 39° C., 3 d",3 fold
same,EC50,[1]; [5],5000 nM
Nonactin [reference compound],"N548 Mut: Max, maximum rescue expressed as fold over DMSO treated N548 mutant cells","[1]; 0.5% IFS, 39° C., 3 d",2.5 fold
same,EC50,[1]; [5],600 nM
Rotenone [reference compound],"N548 Mut: Max, maximum rescue expressed as fold over DMSO treated N548 mutant cells","[1]; 0.5% IFS, 39° C., 3 d",2.5 fold
same,EC50,[1]; [5],5000 nM
